# Earlier results, collected in patent publication US20060193845A1, “Combination therapy for controlled carbohydrate digestion” (ELIXIR PHARMACEUTICALS, INC., priority 2004, published 2006).
compound,measurement,value
"OCCN1C[C@H](O)[C@@H](O)[C@H](O)[C@H]1CO [Miglitol, 3,4,5-piperidinetriol, 1-(2-hydroxyethyl)-2-(hydroxymethyl)-, [2R-(2α,3β,4α,5β)]]",solubility in water,soluble
